The test system of test [1] is RANKL. As to the kind of experiment: RANKL mRNA in purified mammary epithelial cells by qRT-PCR after MPA pellet implantation. Type of test: in vivo, mouse. The procedure: (§1) a,b, Induction of RANKL expression by the progesterone-derivative MPA. Nulliparous wild type females were s.c. implanted with slow-release MPA pellets or treated with surgery sham. a, RANKL mRNA was determined in purified mammary epithelial cells by qRT-PCR three days after implantation. Data are shown as fold change compared to sham treatment (+/−sem) (n=3). b, In situ […] immunostaining of progesterone receptor (PR, red) and RANKL (green) in mammary epithelial cells after 3d MPA treatment. c, Induction of soluble RANKL protein assayed on isolated mammary gland epithelial cells from control, but not in prolactin receptor mutant (PRL-R KO) females on day 3 after s.c. MPA implantation. Mammary glands from sham operated control litter-mates and PRL-R KO females are shown as controls. d, Epithelial proliferation in mammary glands of control littermates and RANK^Δmam females 3 days after sham treatment and MPA implantation. Proliferation was determined by in situ Ki67 immunostaining. e,f, Marked increase of the stem cell-enriched CD24^+CD49^high population (MaSC) in MPA-treated mammary glands in control but not in RANK^Δmam mammary glands. e, Representative FACS profiles showing CD24 and CD49 expression of lineage negative (CD31^− (endothelial cells) CD45^− (hematopoietic cells) […] (erythroid cells)) of mammary MaSCs from MPA- or sham-treated 8-week old virgin females. f, Quantification of MaSC-enriched CD24^+CD49^high population from mammary glands of MPA- or sham-treated virgin RANK^Δmam and littermate control females. For all MaSCs experiments mice were treated with MPA for 3 days. n=4 per group+/−sem. *P<0.05; ***P<0.001 (Student's t-test).
a-d, Induction of RANKL expression by the progesterone-derivative MPA. […] Numbers indicate amino acid residues. c, Expression of total (t) RANKL, RANKL1, RANKL2, and RANKL3 mRNA in purified mammary epithelial cells after three days MPA treatment. β-actin is shown as a control. d, Representative agarose gel of RT-PCR products as in c. e, mRNA expression of various proteases known to shed RANKL from the surface of cells. mRNA was determined in purified mammary epithelial cells by qRT-PCR three days after MPA implantation. […]
a,b, MPA induces RANKL expression in mammary epithelial cells. Nulliparous wild type females were treated with oral gavage of DMBA or oil vehicle, s.c. implanted with slow-release MPA pellets, or treated with sham surgery. a, RANKL mRNA was determined in purified mammary epithelial cells by qRT-PCR 3 days after implantation/oral gavage. […]
On the technique in general: Quantitative PCR measures a nucleic acid by following its amplification.

Test [2] relates to RANKL. Briefly: RANKL protein in mammary gland / isolated mammary epithelial cells (immunostaining, Western blot) after MPA implantation. The format is in vivo, mouse. As to the method: as §1
a-d, Induction of RANKL expression by the progesterone-derivative MPA. Nulliparous wild type females were s.c. implanted with slow-release MPA pellets or treated with surgery sham. a, Expression of transmembrane (tm) and soluble (s) RANKL protein was assayed on isolated mammary gland epithelial cells by Western blot 3 and 6 days after MPA pellet implantation or sham surgery. β-actin is shown as a loading control. Recombinant murine sRANKL and recombinant human tmRANKL protein are shown for molecular size comparison in the right panels. […] Numbers indicate amino acid residues. c, Expression of total (t) RANKL, RANKL1, RANKL2, and RANKL3 mRNA in purified mammary epithelial cells after three days MPA treatment. β-actin is shown as a control. d, Representative agarose gel of RT-PCR products as in c. e, mRNA expression of various proteases known to shed RANKL from the surface of cells. mRNA was determined in purified mammary epithelial cells by qRT-PCR three days after MPA implantation. […]
A general note: In western blotting, separated proteins are transferred to a membrane and probed.

In test [3] the test system is SKBR3 breast cancer cells. As to the kind of experiment: Growth curve of SKBR3 cells, live cell counting. As to conditions: RANKL 1 μg/ml, 3 days. The format is cell-based, human. As to the method:
a, Western blotting for phosphorylated (P) p65 NFκB, total p65 NFκB, phosphorylated (P) IκBα, total IκBα, phosphorylated (P) ERK1/2, total ERK1/2, phosphorylated (P) p38-MAPK, and p38-MAPK in human SKBR3 breast cancer cells in response to RANKL stimulation (1 μg/ml). Data are representative of 3 experiments. b, Growth curve of SKBR3 breast cancer cells cultured in normal growth medium (control, DMEM supplemented with 10% FCS) or in the presence of RANKL (1 μg/ml). Cell numbers were determined by counting live cells (trypan blue-exclusion) over 3 days. c, Onset of palpable mammary tumors in NFATc1^Δmam (n=10) and age matched littermate control (n=16) females treated with MPA pellets and DMBA. Data are shown as percentage of tumor free mice after the last DMBA challenge. No significant difference was found. d, Quantification of NFATc1 mRNA expression in purified mammary epithelial cells (MECs) and MPA-driven mammary tumors from NFATc1^Δmam and littermate control females. mRNA was determined by qRT-PCR. Data are shown as fold change compared to control (+/−sem). n=5 Per group. *P<0.05 (Student's t-test).

As for `CC(=O)O[C@]1(C(C)=O)CC[C@H]2[C@@H]3C[C@H](C)C4=CC(=O)CC[C@]4(C)[C@H]3CC[C@@]21C` [MPA, medroxyprogesterone acetate], in the test on RANKL [1] (3 days after MPA implantation, qRT-PCR), the “mRNA of proteases known to shed RANKL (MMP14, ADAM17/TACE)” value is “induction of MMP14 and ADAM17/TACE”. Further, the “RANKL mRNA and protein expression in purified mammary epithelial cells” value in the test with RANKL [1] (3 days after implantation/oral gavage, qRT-PCR and Western blot) was “induced RANKL mRNA and protein expression”. Moreover, in the test on RANKL [1] (MPA pellets implanted), the “mRNA expression of RANK, OPG, PTHrP and TRAIL in isolated mammary epithelial cells” value was “not changed”. Moreover, the “induction of RANKL mRNA in isolated mammary epithelial cells” value in the test on RANKL [1] (s.c. slow-release MPA pellets, 3 days, vs sham, wild type females) was “more than 2000 fold”. In addition, in the test on RANKL [2] (3 and 6 days after MPA pellet implantation), the “19 kDa soluble form of RANKL, Western blotting of isolated mammary epithelial cells” value is on record as “induction of the 19 kDa soluble form of RANKL”. In addition, in the test on RANKL [2] (3 d MPA treatment), the “RANKL protein in the mammary gland, immunohistochemistry” value is “induction of RANKL protein in the mammary gland”. Also, in the test on RANKL [2] (female control mice, day 3 after s.c. MPA implantation), the RANKL protein production entry is listed as “triggers substantial production of RANKL protein”. For the same molecule, the RANKL protein induction result in the test with RANKL [2] (prolactin receptor mutants (PRL-R KO), day 3 after s.c. MPA implantation) was “failed to detect RANKL induction”.

B1: RANKL: recombinant RANKL protein, ligand of RANK, used as stimulus (1 μg/ml or 1 μg i.p.) (protein, UniProt O35235 139-316, looked up)
Tumor necrosis factor ligand …: FSGAPAMMEGSWLDVAQRGKPEAQPFAHLTINAASIPSGSHKVTLSSWYHDRGWAKISNMTLSNGKLRVNQDGFYYLYANICFRHHETSGSVPTDYLQLMVYVVKTSIKIPSSHNLMKGGSTKNWSGNSEFHFYSINVGGFFKLRAGEEISIQVSNPSLLDPDQDATYFGAFKVQDID
For B1, the “proliferation of SKBR3 cells” value in test [3] is “induced NFκB, p38-MAPKs and ERK activation and proliferation”.

(Values after patent US10143747B2, “Breast cancer therapeutics” (IMBA—INSTITUT FÜR MOLEKULARE BIOTECHNOLOGIE GMBH, priority 2010, dated 2018).)
